Results taken from patent US6355799B1, “Substituted benzene compounds, process for their preparation, and herbicidal and defoliant compositions containing them” (ISK Americas Incorporated, priority 1997, dated 2002).

Key:
Assay type in all cases: in vivo
[1] = system: redroot pigweed (Amaranthus retroflexus, AMARE); test: Pre-emerge test, greenhouse herbicide activity screening; details: rating scale 0-100, 14 days after application
Outline: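 Visual ratings on a 0-100 scale (0 no damage, 100 all plants dead) were taken at 14 days after treatment. Rates of 15-1000 g ai/ha in acetone, 187 l/ha, were sprayed onto soil one day after planting (pre-emerge) or onto 2-3 leaf plants with 0.25% v/v surfactant (post-emerge).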

[2] = system: barnyardgrass (Echinochloa crus-galli, ECHCG); test: as above; details: rating scale 0-100, 14 days after application
Outline: (§1)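 Rating: 0–100 visual injury, 14 DAA. Application: acetone, 187 l/ha, 15–1000 g ai/ha, flat-fan track sprayer with nozzle 40–45 cm above soil or canopy. Post-emerge runs used 0.25% v/v surfactant on 2–3 leaf plants.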

[3] = system: green foxtail (Setaria viridis, SETVI); test: as above; details: rating scale 0-100, 14 days after application
Outline: as §1

[4] = system: ivyleaf morningglory (Ipomoea hederacea, IPOHE); test: as above; details: rating scale 0-100, 14 days after application
Outline: as §1

[5] = system: johnsongrass (Sorghum halepense, SORHA); test: as above; details: rating scale 0-100, 14 days after application
Outline: as §1

[6] = system: lambsquarters (Chenopodium album, CHEAL); test: as above; details: rating scale 0-100, 14 days after application
Outline: as §1

[7] = system: large crabgrass (Digitaria sanguinalis, DIGSA); test: as above; details: rating scale 0-100, 14 days after application
Outline: as §1

[8] = system: sicklepod (Cassia obtusifolia, CASOB); test: as above; details: rating scale 0-100, 14 days after application
Outline: as §1

[9] = system: velvetleaf (Abutilon theophrasti, ABUTH); test: as above; details: rating scale 0-100, 14 days after application
Outline: as §1

[10] = system: field corn (Zea mays L., var. Dekalb 535, CORN); test: Pre-emerge test, crop safety; details: rating scale 0-100, 14 days after application
Outline: (§2)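 Herbicidal damage is scored 0 (none) to 100 (complete plant death) two weeks after a simulated field spray. Rates span 15–1000 g ai/ha, delivered in acetone at 187 l/ha. For post-emergence treatments, plants have 2–3 leaves and the spray carries 0.25% v/v non-ionic surfactant.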

[11] = system: upland rice (Oryza sp., var. Tebonnet, RICE); test: Pre-emerge test, crop safety; details: rating scale 0-100, 14 days after application
Outline: as §2

[12] = system: barnyardgrass (Echinochloa crus-galli, ECHCG); test: Post-emerge test, greenhouse herbicide activity screening; details: rating scale 0-100 (0 no damage, 100 complete death), 14 days after application
Outline: (§3)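 Compounds in acetone were track-sprayed at 15–1000 g ai/ha: pre-emergence onto soil sown the previous day, then top-watered to incorporate and later bottom-watered; post-emergence onto 2–3 leaf plants with 0.25% v/v surfactant, bottom-watered only. Ratings on a 0–100 phytotoxicity scale were taken at day 14.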

[13] = system: green foxtail (Setaria viridis, SETVI); test: as above; details: rating scale 0-100 (0 no damage, 100 complete death), 14 days after application
Outline: as §3

[14] = system: ivyleaf morningglory (Ipomoea hederacea, IPOHE); test: as above; details: rating scale 0-100 (0 no damage, 100 complete death), 14 days after application
Outline: as §3

[15] = system: johnsongrass (Sorghum halepense, SORHA); test: as above; details: rating scale 0-100 (0 no damage, 100 complete death), 14 days after application
Outline: as §3

[16] = system: lambsquarters (Chenopodium album, CHEAL); test: as above; details: rating scale 0-100 (0 no damage, 100 complete death), 14 days after application
Outline: as §3

[17] = system: large crabgrass (Digitaria sanguinalis, DIGSA); test: as above; details: rating scale 0-100 (0 no damage, 100 complete death), 14 days after application
Outline: as §3

[18] = system: redroot pigweed (Amaranthus retroflexus, AMARE); test: as above; details: rating scale 0-100 (0 no damage, 100 complete death), 14 days after application
Outline: as §3

[19] = system: sicklepod (Cassia obtusifolia, CASOB); test: as above; details: rating scale 0-100 (0 no damage, 100 complete death), 14 days after application
Outline: as §3

[20] = system: velvetleaf (Abutilon theophrasti, ABUTH); test: as above; details: rating scale 0-100 (0 no damage, 100 complete death), 14 days after application
Outline: as §3

[21] = system: field corn (Zea mays L., var. Dekalb 535, CORN); test: Post-emerge test, crop safety; details: rating scale 0-100 (0 no damage, 100 complete death), 14 days after application
Outline: (§4)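 Plants grown in 10 cm pots of sandy loam mix received acetone-dissolved compounds through a moving flat-fan nozzle. Doses ranged from 15 to 1000 g ai/ha. Pre-emerge pots were seeded one day earlier, post-emerge pots 8–21 days earlier. Fourteen days on, each pot was graded 0–100 for damage.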

[22] = system: upland rice (Oryza sp., var. Tebonnet, RICE); test: Post-emerge test, crop safety; details: rating scale 0-100 (0 no damage, 100 complete death), 14 days after application
Outline: as §4

With `COc1c(Cl)cc(F)c(-n2c(=O)cc(C(F)(F)F)n(C)c2=O)c1CC(Cl)C(=O)OCCC(C)C` (single isomer, unassigned) [14-16] the “Pre-emerge herbicidal activity, phytotoxicity rating AMARE” value ([1]; 63 g ai/ha) was 100, the “Pre-emerge herbicidal activity, phytotoxicity rating AMARE” value ([1]; 250 g ai/ha) was 100 and the “Pre-emerge herbicidal activity, phytotoxicity rating ECHCG” value ([2]; 63 g ai/ha) was 0. The “Pre-emerge herbicidal activity, phytotoxicity rating ECHCG” value ([2]; 250 g ai/ha) was 0, the “Pre-emerge herbicidal activity, phytotoxicity rating SETVI” value ([3]; 63 g ai/ha) was 0 and the “Pre-emerge herbicidal activity, phytotoxicity rating SETVI” value ([3]; 250 g ai/ha) was 0. The “Pre-emerge herbicidal activity, phytotoxicity rating IPOHE” value ([4]; 63 g ai/ha) was 0, the “Pre-emerge herbicidal activity, phytotoxicity rating IPOHE” value ([4]; 250 g ai/ha) was 0 and the “Pre-emerge herbicidal activity, phytotoxicity rating SORHA” value ([5]; 63 g ai/ha) was 0. For the same compound, the “Pre-emerge herbicidal activity, phytotoxicity rating SORHA” value ([5]; 250 g ai/ha) was 0, the “Pre-emerge herbicidal activity, phytotoxicity rating CHEAL” value ([6]; 63 g ai/ha) was 100 and the “Pre-emerge herbicidal activity, phytotoxicity rating CHEAL” value ([6]; 250 g ai/ha) was 100. The “Pre-emerge herbicidal activity, phytotoxicity rating DIGSA” value ([7]; 63 g ai/ha) was 50, the “Pre-emerge herbicidal activity, phytotoxicity rating DIGSA” value ([7]; 250 g ai/ha) was 100 and the “Pre-emerge herbicidal activity, phytotoxicity rating CASOB” value ([8]; 63 g ai/ha) was 0. The “Pre-emerge herbicidal activity, phytotoxicity rating CASOB” value ([8]; 250 g ai/ha) was 0, the “Pre-emerge herbicidal activity, phytotoxicity rating ABUTH” value ([9]; 63 g ai/ha) was 0 and the “Pre-emerge herbicidal activity, phytotoxicity rating ABUTH” value ([9]; 250 g ai/ha) was 90. For the same compound, the “Pre-emerge phytotoxicity rating, crop damage CORN” value ([10]; 63 g ai/ha) was 0, the “Pre-emerge phytotoxicity rating, crop damage CORN” value ([10]; 250 g ai/ha) was 0 and the “Pre-emerge phytotoxicity rating, crop damage RICE” value ([11]; 63 g ai/ha) was 0. The “Pre-emerge phytotoxicity rating, crop damage RICE” value ([11]; 250 g ai/ha) was 0, the “Post-emerge Herbicidal Activity, phytotoxicity rating ECHCG” value ([12]; Rate 63 g ai/ha) was 95 and the “Post-emerge Herbicidal Activity, phytotoxicity rating ECHCG” value ([12]; Rate 250 g ai/ha) was 100. The “Post-emerge Herbicidal Activity, phytotoxicity rating SETVI” value ([13]; Rate 63 g ai/ha) was 0, the “Post-emerge Herbicidal Activity, phytotoxicity rating SETVI” value ([13]; Rate 250 g ai/ha) was 30 and the “Post-emerge Herbicidal Activity, phytotoxicity rating IPOHE” value ([14]; Rate 63 g ai/ha) was 40. For the same compound, the “Post-emerge Herbicidal Activity, phytotoxicity rating IPOHE” value ([14]; Rate 250 g ai/ha) was 50, the “Post-emerge Herbicidal Activity, phytotoxicity rating SORHA” value ([15]; Rate 63 g ai/ha) was 0 and the “Post-emerge Herbicidal Activity, phytotoxicity rating SORHA” value ([15]; Rate 250 g ai/ha) was 30. The “Post-emerge Herbicidal Activity, phytotoxicity rating CHEAL” value ([16]; Rate 63 g ai/ha) was 95, the “Post-emerge Herbicidal Activity, phytotoxicity rating CHEAL” value ([16]; Rate 250 g ai/ha) was 100 and the “Post-emerge Herbicidal Activity, phytotoxicity rating DIGSA” value ([17]; Rate 63 g ai/ha) was 90. For the same compound, the “Post-emerge Herbicidal Activity, phytotoxicity rating DIGSA” value ([17]; Rate 250 g ai/ha) was 100, the “Post-emerge Herbicidal Activity, phytotoxicity rating AMARE” value ([18]; Rate 63 g ai/ha) was 60 and the “Post-emerge Herbicidal Activity, phytotoxicity rating AMARE” value ([18]; Rate 250 g ai/ha) was 100. For the same compound, the “Post-emerge Herbicidal Activity, phytotoxicity rating CASOB” value ([19]; Rate 63 g ai/ha) was 20, the “Post-emerge Herbicidal Activity, phytotoxicity rating CASOB” value ([19]; Rate 250 g ai/ha) was 40 and the “Post-emerge Herbicidal Activity, phytotoxicity rating ABUTH” value ([20]; Rate 63 g ai/ha) was 60. For the same compound, the “Post-emerge Herbicidal Activity, phytotoxicity rating ABUTH” value ([20]; Rate 250 g ai/ha) was 100, the “Post-emerge phytotoxicity rating CORN (crop damage)” value ([21]; Rate 63 g ai/ha) was 0 and the “Post-emerge phytotoxicity rating CORN (crop damage)” value ([21]; Rate 250 g ai/ha) was 70. The “Post-emerge phytotoxicity rating RICE (crop damage)” value ([22]; Rate 63 g ai/ha) was 0 and the “Post-emerge phytotoxicity rating RICE (crop damage)” value ([22]; Rate 250 g ai/ha) was 10.
